Measured values as given in patent US9102642B2, “Herbicidally active cyclic diones and derivatives thereof, processes for their preparation, compositions, and methods of controlling weeds” (Syngenta Limited, priority 2009, dated 2015).

Experiments:
Assay in all cases: Pre-emergence herbicidal activity, glasshouse pot test
Type in all cases: in vivo
Settings in all cases: 312 h, Rate 250 g/ha, evaluated after 13 days, 100=total damage to plant, 0=no damage to plant
[1] = test system: Alopecurus myosuroides (ALOMY)
Method: (§1) Seeds of a variety of test species were sown in standard soil in pots. After cultivation for one day (pre-emergence) or after 8 days cultivation (post-emergence) under controlled conditions in a glasshouse (at 24/16° C., day/night; 14 hours light; 65% humidity), the plants were sprayed with an aqueous spray solution derived from the formulation of the technical active ingredient in acetone/water (50:50) solution containing 0.5% Tween 20 (polyoxyethelyene sorbitan monolaurate, CAS RN 9005-64-5). The test plants were then grown in a glasshouse under controlled conditions in a glasshouse (at 24/16° C., day/night; 14 hours light; 65% humidity) and watered twice daily. After 13 days for pre and post-emergence, the test was evaluated (100=total damage to plant; 0=no damage to plant). Test Plants: Lolium perenne (LOLPE), Alopecurus myosuroides (ALOMY), Echinochloa crus-galli (ECHCG), and Avena fatua (AVEFA). Pre-Emergence Activity

[2] = test system: Avena fatua (AVEFA)
Method: as §1

[3] = test system: Echinochloa crus-galli (ECHCG)
Method: as §1

[4] = test system: Lolium perenne (LOLPE)
Method: as §1

| Structure (SMILES) | pest or weed control at 250 g/ha [1] | pest or weed control at 250 g/ha [2] | pest or weed control at 250 g/ha [3] | pest or weed control at 250 g/ha [4] |
| --- | --- | --- | --- | --- |
| CCc1cc(Oc2ccc(Cl)cc2Cl)ccc1C1=C(O)C(C)(C)OC(C)(C)C1=O [Compound A-2] | 20% | 0% | 50% | 70% |
| CCc1cc(Oc2ccc(Cl)cc2F)ccc1C1=C(O)C(C)(C)OC(C)(C)C1=O [Compound A-3] | 20% | 10% | 20% | 20% |
| CCc1cc(Oc2ccc(Cl)cc2)ccc1C1=C(O)C(C)(C)OC(C)(C)C1=O [Compound A-4] | 20% | 20% | 60% | 60% |
| CCc1cc(Oc2ccc(Br)cc2)ccc1C1=C(O)C(C)(C)OC(C)(C)C1=O [Compound A-5] | 10% | 10% | 40% | 30% |
| CCc1cc(Oc2ccc(F)cc2)ccc1C1=C(O)C(C)(C)OC(C)(C)C1=O [Compound A-6] | 60% | 30% | 100% | 100% |
| CCc1cc(Oc2ccc(Cl)c(F)c2)ccc1C1=C(O)C(C)(C)OC(C)(C)C1=O [Compound A-7, 4-[4-(4-chloro-3-fluorophenoxy)-2-ethylphenyl]-2,2,6,6-tetramethylpyran-3,5-dione] | 40% | 20% | 60% | 80% |
| CCc1cc(Oc2ncc(Cl)cc2F)ccc1C1=C(O)C(C)(C)OC(C)(C)C1=O [Compound A-8] | 40% | 30% | 100% | 100% |
| CCc1cc(Oc2ccc(C(F)(F)F)cn2)ccc1C1=C(O)C(C)(C)OC(C)(C)C1=O [Compound A-9, 4-[4-(5-trifluoromethylpyridin-2-yloxy)-2-ethylphenyl]-2,2,6,6-tetramethylpyran-3,5-dione] | 20% | 0% | 30% | 60% |
| CCc1cc(Oc2cnc3cc(Cl)ccc3n2)ccc1C1=C(O)C(C)(C)OC(C)(C)C1=O [Compound A-10, 4-[4-(6-chloroquinoxalin-2-yloxy)-2-ethylphenyl]-2,2,6,6-tetramethylpyran-3,5-dione] | 70% | 90% | 100% | 100% |
| CCc1cc(Oc2ncc(C(F)(F)F)cc2Cl)ccc1C1=C(O)C(C)(C)OC(C)(C)C1=O [Compound A-11] | 90% | 90% | 100% | 100% |
| Cc1cc(Oc2cnc3cc(Cl)ccc3n2)cc(C)c1C1=C(O)C(C)(C)OC(C)(C)C1=O [Compound A-14] | 30% | 10% | 20% | 50% |
| Cc1cc(Oc2ncccc2Cl)cc(C)c1C1=C(O)CCCC1=O [Compound A-16] | 0% | 0% | 0% | 0% |
